The values below come from patent US20230339854A1, “Negative Allosteric Modulation of GluN3-Containing N-Methyl-D-Aspartate Receptors” (Emory University, priority 2020, published 2023).

SMILES strings stand for the structures.

This assay addresses T1, human GluN1^FA,TL/GluN3A receptors (Homo sapiens, UniProt Q8TCU5).
T1 construct: Human GluN3A (NP_597702.2) and rat GluN3B (NP_579842.2) were synthesized and subcloned into SP6 plasmids; expressed in transfected cells; host or cells: Xenopus laevis oocytes, cRNA injection (GluN1:GluN3 1:3)
Nature of the assay: Two-electrode voltage-clamp recordings of GluN1^FA,TL/GluN3A receptors in Xenopus oocytes. The settings on record: read-out: hGluN1^FA,TL/hGluN3A (100 × Idrug/Icontrol at 30 μM drug). The format is cell-based. From the text:
cDNA encoding human wild-type (WT) GluN1-1a (GenBank accession numbers NP_015566, hereafter GluN1) and rat GluN1-1a (NP_058706.1) were synthesized and subcloned into pGEMHE plasmid; some experiments used the rat splice variant GluN1-4a (NP_001257531.1). Human GluN3A (NP_597702.2) and rat GluN3B (NP_579842.2) were synthesized and subcloned into SP6 plasmids. For most experiments, human GluN1 was co-expressed with human GluN3A, except for mutagenesis experiments where rat GluN1 was co-expressed with human GluN3A. Rat GluN1-4a was always expressed with rat GluN3B.
Defolliculated Xenopus laevis oocytes (stage V-VI) were obtained from Ecocyte BioScience (Austin, Texas), or prepared from commercially available Xenopus ovaries (Xenopus 1, Dexter, MI) as previously described (Hansen, et al., Mol. Pharmacol., 2013). A Drummond Nanoject II (Broomall, PA) was used to inject oocytes with cRNAs encoding GluN1 and GluN3 at a 1:3 ratio in RNase-free water. The cRNA was diluted as needed to give responses with amplitudes ranging between 200-2000 nA (0.2-10 ng total cRNA). Following cRNA injection, the oocytes were stored at 15-19° C. in Barth's solution that contained (in mM) 88 NaCl, 2.4 NaHCO3, 1 KCl, 0.33 Ca(NO3)2, 0.41 CaCl2), 0.82 MgSO4, and 5 Tris-HCl (pH 7.4 with NaOH), supplemented with 1 μg/ml streptomycin (Invitrogen, Carlsbad, CA) and 100 μg/ml gentamicin (Fisher Scientific, Pittsburgh, PA). Recordings were performed 2-5 days following cRNA microinjection at room temperature (23° C.) using a two-electrode voltage-clamp amplifier (OC725, Warner Instrument, Hamilton, CT). The signal was low-pass filtered at 10-20 Hz (4-pole, −3 dB Bessel) and digitized at the Nyquist rate using PCI-6025E or USB-6212 BNC data acquisition boards (National Instruments, Austin, TX) using EasyOocyte (http://www.easyoocyte.io/). Oocytes were placed in a custom-made chamber and continuously perfused (2.5 ml/min) with oocyte recording solution containing (in mM) 90 NaCl, 1 KCl, 10 HEPES, 0.5-1.0 BaCl2, and 0.01 EDTA (pH 7.4 with NaOH). Solutions were applied by gravity, and solution exchange was controlled through a rotary valve (Hamilton, Reno, NV). Recording electrodes were filled with 0.3-3.0 M KCl, and current responses were recorded at a holding potential of −40 mV.
Response (%)=(100−minimum)/(1+([concentration]/IC50)^nH)+minimum (2) • where nH is the Hill slope, IC50 is the concentration that produces a half-maximal effect, and minimum is the degree of residual inhibition at a saturating concentration of the negative allosteric modulator.
The afore-referenced compounds were screened in the same assay as EU1180-438 to determine their effects on hGluN1^FA,TL/hGluN3A receptors. Selected compounds that inhibited by more than 20% at the concentration at which they were initially evaluated (either 10 or 30 μM) were analyzed further, and a dose-response curve was generated to determine their IC50 values.
Background: Two-electrode voltage clamp is typically applied to oocytes expressing channels or transporters.

T1 sequence (Q8TCU5 24-1115, other chains not shown): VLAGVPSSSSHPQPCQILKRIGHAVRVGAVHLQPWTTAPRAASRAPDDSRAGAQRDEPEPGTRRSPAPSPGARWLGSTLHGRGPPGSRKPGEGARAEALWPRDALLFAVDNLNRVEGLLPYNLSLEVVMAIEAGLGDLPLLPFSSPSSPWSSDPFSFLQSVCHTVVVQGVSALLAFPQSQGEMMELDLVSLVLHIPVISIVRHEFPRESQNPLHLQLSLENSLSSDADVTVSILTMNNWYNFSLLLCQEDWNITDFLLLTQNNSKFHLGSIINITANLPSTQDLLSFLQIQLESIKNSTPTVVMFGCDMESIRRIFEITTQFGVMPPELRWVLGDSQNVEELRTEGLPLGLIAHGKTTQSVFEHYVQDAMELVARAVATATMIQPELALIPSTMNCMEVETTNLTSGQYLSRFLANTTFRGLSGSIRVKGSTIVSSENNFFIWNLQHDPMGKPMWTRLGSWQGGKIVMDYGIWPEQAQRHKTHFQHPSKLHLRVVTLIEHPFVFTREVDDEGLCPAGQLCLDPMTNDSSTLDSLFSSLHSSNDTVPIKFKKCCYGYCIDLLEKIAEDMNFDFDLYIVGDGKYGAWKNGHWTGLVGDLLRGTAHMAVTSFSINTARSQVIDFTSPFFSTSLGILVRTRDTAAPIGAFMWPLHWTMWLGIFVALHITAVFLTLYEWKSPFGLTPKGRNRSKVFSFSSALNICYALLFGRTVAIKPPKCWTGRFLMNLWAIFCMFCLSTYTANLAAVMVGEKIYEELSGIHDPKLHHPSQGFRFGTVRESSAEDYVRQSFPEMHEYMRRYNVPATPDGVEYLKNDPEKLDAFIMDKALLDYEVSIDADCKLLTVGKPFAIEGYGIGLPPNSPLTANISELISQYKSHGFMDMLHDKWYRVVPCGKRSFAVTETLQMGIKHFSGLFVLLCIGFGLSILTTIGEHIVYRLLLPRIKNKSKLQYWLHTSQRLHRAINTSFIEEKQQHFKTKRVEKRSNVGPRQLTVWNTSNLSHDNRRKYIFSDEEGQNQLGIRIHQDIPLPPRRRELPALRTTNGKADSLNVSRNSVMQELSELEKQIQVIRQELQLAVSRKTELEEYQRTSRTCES

As for `COc1ccc(C(COc2cccc(C)n2)N2Cc3ccc(C(F)(F)F)cc3C2=O)cc1` (stereo not drawn) [EU1180-593, 2-(1-(4-Methoxyphenyl)-2-((6-methylpyridin-2-yl)oxy)ethyl)-6-(trifluoromethyl)isoindolin-1-one], the remaining activity at 30 µM amounted to 83%.

For the compound `COc1ccc(C(COc2cccc(C)n2)N2Cc3ccc(Cl)cc3C2=O)cc1` (stereo not drawn) [EU1180-595, 6-Chloro-2-(1-(4-methoxyphenyl)-2-((6-methylpyridin-2-yl)oxy)ethyl)isoindolin-1-one], the remaining activity at 30 µM was 75%.

Take `CC(C)Oc1ccc(C(COc2ccc(C(F)(F)F)cc2)N2Cc3ccccc3C2=O)cc1` (stereo not drawn) [EU1180-571, 2-(1-(4-isopropoxyphenyl)-2-(4-(trifluoromethyl)phenoxy)ethyl)isoindolin-1-one]: the remaining activity at 30 µM is 94%.

`COc1cc(F)c(C(COc2cccc(C)n2)N2Cc3cc(F)ccc3C2=O)c(F)c1` (stereo not drawn) [EU1180-613, 2-(1-(2,6-Difluoro-4-methoxyphenyl)-2-((6-methylpyridin-2-yl)oxy)ethyl)-5-fluoroisoindolin-1-one]: the remaining activity at 30 µM amounted to 89%.

As to `COc1ccc(OCC(c2c(F)cc(OC)cc2F)N2Cc3ccccc3C2=O)cc1` (stereo not drawn) [EU1180-545, 2-(1-(2,6-Difluoro-4-methoxyphenyl)-2-(4-methoxyphenoxy)ethyl)isoindolin-1-one], the remaining activity at 30 µM was found to be 74%.

In the case of `COc1ccc(C(COc2cccc(C)n2)N2Cc3ccc(Br)cc3C2=O)c(F)c1` (stereo not drawn) [EU1180-607, 6-Bromo-2-(1-(2-fluoro-4-methoxyphenyl)-2-((6-methylpyridin-2-yl)oxy)ethyl)isoindolin-1-one], the remaining activity at 30 µM worked out at 62%.

For the compound `COc1ccc(C(COc2cccc(C)n2)N2Cc3ccc(Br)cc3C2=O)cc1` (stereo not drawn) [EU1180-597, 6-Bromo-2-(1-(4-methoxyphenyl)-2-((6-methylpyridin-2-yl)oxy)ethyl)isoindolin-1-one], the remaining activity at 30 µM was 69%.

Consider `CC(C)Oc1ccc(C(COc2ccc(C(F)(F)F)cc2)N2Cc3ccc(Cl)cc3C2=O)cc1` (stereo not drawn) [EU1180-573, 6-chloro-2-(1-(4-isopropoxyphenyl)-2-(4-(trifluoromethyl)phenoxy)ethyl)isoindolin-1-one], for which the remaining activity at 30 µM worked out at 100%.

As for `COc1ccc(C(COc2cccc(C)n2)N2Cc3cc(F)ccc3C2=O)cc1` (stereo not drawn) [EU1180-598, 5-Fluoro-2-(1-(4-methoxyphenyl)-2-((6-methylpyridin-2-yl)oxy)ethyl)isoindolin-1-one], the remaining activity at 30 µM came out at 89%.

As to `COc1ccc(OCC(c2ccc(OC(C)C)cc2)N2Cc3ccc(Cl)cc3C2=O)cc1` (stereo not drawn) [EU1180-564, 6-chloro-2-(1-(4-isopropoxyphenyl)-2-(4-methoxyphenoxy)ethyl)isoindolin-1-one], the remaining activity at 30 µM worked out at 96%.

Regarding `CC(C)Oc1ccc(C(COc2ccc(C(F)(F)F)cc2)N2Cc3ccc(F)cc3C2=O)cc1` (stereo not drawn) [EU1180-575, 6-fluoro-2-(1-(4-isopropoxyphenyl)-2-(4-(trifluoromethyl)phenoxy)ethyl)isoindolin-1-one], the remaining activity at 30 µM is 76%.

For the compound `COc1ccc(OCC(c2ccc(OC)cc2F)N2Cc3cc(Br)ccc3C2=O)cc1` (stereo not drawn) [EU1180-534, 5-Bromo-2-(1-(2-fluoro-4-methoxyphenyl)-2-(4-methoxyphenoxy)ethyl)isoindolin-1-one], the remaining activity at 30 µM was 99%.

For `CC(C)Oc1ccc(C(COc2ccc(OC(F)(F)F)cc2)N2Cc3cc(F)ccc3C2=O)cc1` (stereo not drawn) [EU1180-544, 5-fluoro-2-(1-(4-isopropoxyphenyl)-2-(4-(trifluoromethoxy)phenoxy)ethyl)isoindolin-1-one], the remaining activity at 30 µM is 98%.

Take `COc1ccc(OCC(c2c(F)cc(OC)cc2F)N2Cc3cc(Cl)ccc3C2=O)cc1` (stereo not drawn) [EU1180-547, 5-Chloro-2-(1-(2,6-difluoro-4-methoxyphenyl)-2-(4-methoxyphenoxy)ethyl)isoindolin-1-one]: the remaining activity at 30 µM worked out at 98%.

Consider `COc1ccc(OCC(c2ccc(OC)cc2F)N2Cc3ccccc3C2=O)cc1` (stereo not drawn) [EU1180-530, 2-(1-(2-Fluoro-4-methoxyphenyl)-2-(4-methoxyphenoxy)ethyl)isoindolin-1-one], for which the remaining activity at 30 µM worked out at 41%.

In the case of `COc1ccc(OCC(c2c(F)cc(OC)cc2F)N2Cc3cc(F)ccc3C2=O)cc1` (stereo not drawn) [EU1180-551, 2-(1-(2,6-Difluoro-4-methoxyphenyl)-2-(4-methoxyphenoxy)ethyl)-5-fluoroisoindolin-1-one], the remaining activity at 30 µM was found to be 92%.

As to `COc1ccc(OCC(c2ccc(OC)c(OC)c2)N2Cc3ccc(Br)cc3C2=O)cc1` (stereo not drawn) [EU1180-527, 6-Bromo-2-(1-(3,4-dimethoxyphenyl)-2-(4-methoxyphenoxy)ethyl)isoindolin-1-one], the remaining activity at 30 µM came to 94%.

In the case of `COc1ccc(OCC(c2ccc(OC)cc2)N2Cc3cc(Br)ccc3C2=O)cc1` (stereo not drawn) [EU1180-519, 5-Bromo-2-(2-(4-methoxyphenoxy)-1-(4-methoxyphenyl)ethyl)isoindolin-1-one], the remaining activity at 30 µM was determined as 90%.

Turning to `COc1cc(F)c(C(COc2cccc(C)n2)N2Cc3ccc(F)cc3C2=O)c(F)c1` (stereo not drawn) [EU1180-614, 2-(1-(2,6-Difluoro-4-methoxyphenyl)-2-((6-methylpyridin-2-yl)oxy)ethyl)-6-fluoroisoindolin-1-one], the remaining activity at 30 µM turned out to be 57%.

As for `COc1ccc(C(COc2cccc(C)n2)N2Cc3ccc(C(F)(F)F)cc3C2=O)c(F)c1` (stereo not drawn) [EU1180-603, 2-(1-(2-Fluoro-4-methoxyphenyl)-2-((6-methylpyridin-2-yl)oxy)ethyl)-6-(trifluoromethyl)isoindolin-1-one], the remaining activity at 30 µM amounted to 84%.

Turning to `COc1cc(F)c(C(COc2cccc(C)n2)N2Cc3ccccc3C2=O)c(F)c1` (stereo not drawn) [EU1180-608, 2-(1-(2,6-Difluoro-4-methoxyphenyl)-2-((6-methylpyridin-2-yl)oxy)ethyl)isoindolin-1-one], the remaining activity at 30 µM turned out to be 70%.

As to `COc1ccc(OCC(c2ccc(OC)cc2)N2Cc3ccc(F)cc3C2=O)cc1` (stereo not drawn) [EU1180-522, 6-Fluoro-2-(2-(4-methoxyphenoxy)-1-(4-methoxyphenyl)ethyl)isoindolin-1-one], the remaining activity at 30 µM amounted to 25%.

For the compound `CC(C)Oc1ccc(C(COc2ccc(OC(F)(F)F)cc2)N2Cc3ccc(F)cc3C2=O)cc1` (stereo not drawn) [EU1180-542, 6-fluoro-2-(1-(4-isopropoxyphenyl)-2-(4-(trifluoromethoxy)phenoxy)ethyl)isoindolin-1-one], the remaining activity at 30 µM amounted to 98%.

As for `CCOc1ccc(OCC(c2ccc(OC(C)C)cc2)N2Cc3cc(F)ccc3C2=O)cc1` (stereo not drawn) [EU1180-591, 5-fluoro-2-(2-(4-ethoxyphenoxy)-1-(4-isopropoxyphenyl)ethyl)isoindolin-1-one], the remaining activity at 30 µM came to 90%.

Turning to `COc1cc(F)c(C(COc2cccc(C)n2)N2Cc3cc(Cl)ccc3C2=O)c(F)c1` (stereo not drawn) [EU1180-610, 5-Chloro-2-(1-(2,6-difluoro-4-methoxyphenyl)-2-((6-methylpyridin-2-yl)oxy)ethyl)isoindolin-1-one], the remaining activity at 30 µM came to 76%.

For `COc1ccc(OCC(c2ccc(OC)cc2)N2Cc3cc(Cl)ccc3C2=O)cc1` (stereo not drawn) [EU1180-517, 5-Chloro-2-(2-(4-methoxyphenoxy)-1-(4-methoxyphenyl)ethyl)isoindolin-1-one], the remaining activity at 30 µM is 92%.

Consider `CC(C)Oc1ccc(C(COc2ccc(C(F)(F)F)cc2)N2Cc3cc(Cl)ccc3C2=O)cc1` (stereo not drawn) [EU1180-574, 5-chloro-2-(1-(4-isopropoxyphenyl)-2-(4-(trifluoromethyl)phenoxy)ethyl)isoindolin-1-one], for which the remaining activity at 30 µM is 91%.
